Laboratory results from ChEMBL document CHEMBL1146353, “Synthesis of fluorescent molecular probes specific for the receptor of blepharismone, a mating-inducing pheromone of the ciliate Blepharisma japonicum” (2007).
Activity calls are given as the source filed them. No cut-off for these calls is given here.

Assays:
Blepharisma japonicum [1] = experiment: Inhibition of blepharismone-induced monotypic pairing of Blepharisma japonicum R1072; assay type: functional
Blepharisma japonicum [2] = experiment: Inhibition of blepharismone-induced monotypic pairing of Blepharisma japonicum R1072 upto 1 mM; assay type: functional

## CC(=O)c1ccccc1NC(=O)Cc1ccc(-c2ccccc2)cc1
Blepharisma japonicum [1]
  Activity: inactive
Blepharisma japonicum [2]
  Inhibitory concentration: >1000 µM

## CC(=O)c1ccccc1NC(=O)CCCc1ccc2ccc3cccc4ccc1c2c34
Blepharisma japonicum [1]
  Activity: inactive
Blepharisma japonicum [2]
  Inhibitory concentration: >1000 µM

## O=C(CCCc1ccc2ccc3cccc4ccc1c2c34)Nc1ccc(O)cc1C(=O)C[C@H](O)C(=O)O
Blepharisma japonicum [2]
  Inhibitory concentration: 4 µM

## O=C(Cc1ccc(-c2ccccc2)cc1)Nc1ccc(O)cc1C(=O)C[C@H](O)C(=O)O
Blepharisma japonicum [2]
  Inhibitory concentration: 4.8 µM
